The results in this text go back to article PMC9668100, “Isovitexin Protects Mice from Methicillin-Resistant Staphylococcus aureus-Induced Pneumonia by Targeting Sortase A” (Journal of Microbiology and Biotechnology, 2022).

Usually Kd stands for a measure of binding affinity in units of concentration.

The assay has as its target Sortase A (SrtA) (Staphylococcus aureus, UniProt Q2FV99). Briefly: intrinsic fluorescence quenching with purified recombinant SrtA (KA); also FRET inhibition of purified SrtA, IC50 =[…], reversible. In kind it is binding.

Sequence of Sortase A (SrtA) (Q2FV99 whole entry): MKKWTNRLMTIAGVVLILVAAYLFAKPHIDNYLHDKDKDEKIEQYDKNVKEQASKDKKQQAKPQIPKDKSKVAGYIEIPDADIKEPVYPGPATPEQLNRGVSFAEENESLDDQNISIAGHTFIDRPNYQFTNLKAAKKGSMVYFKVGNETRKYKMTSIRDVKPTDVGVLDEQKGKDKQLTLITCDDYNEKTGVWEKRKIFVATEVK

Turning to `O=c1cc(-c2ccc(O)cc2)oc2cc(O)c([C@@H]3O[C@H](CO)[C@@H](O)[C@H](O)[C@H]3O)c(O)c12` [isovitexin], the Kd is 14 µM.
